The values below come from paper PMC11784145, “Efficacy and in vitro pharmacological assessment of novel N-hydroxypyridinediones as hepatitis B virus ribonuclease H inhibitors” (Antimicrobial Agents and Chemotherapy, 2024).

Data set [1] relates to HBV replication (HBV plus-polarity DNA strand). Put plainly: HBV replication inhibition, strand preferential qPCR in hepDES19 cells. The data set is classed as cell-based, hepatitis B virus. The conditions noted are these: for EC50: 72 h exposure, HBV plus-polarity strand suppression, highest concentration tested 100 µM, mean ± SD, read-out: HepDES19 EC50. As to the method: HBV replication inhibition was measured in hepDES19 cells following 72 h compound exposure without compound replenishment. EC50 values were determined by HBV plus-polarity strand suppression using a strand preferential qPCR assay, as described previously ([28]). Three or more replicate values were obtained on different days.

Data set [2] can be described thus: Parallel artificial membrane permeability assay (PAMPA). The conditions noted are these: for Papp 3 (PAMPA): pH 7.4, replicate 3. Type of data set: in vitro ADME. Here is the method: Compound Papp values were determined by normalizing the experimental compound absorbance to the compounds’ absorbances at equilibrium, membrane porosity, buffer volume, and time (s). Two or more replicate assays were obtained on separate days for each pH.

The subject of another data set is HepDES19 cells. The conditions noted are these: read-out: HepDES19 CC50; 72 h, MTS; highest concentration tested 100 µM; mean ± SD.
Data set [3] can be described thus: Solubility limit, turbidimetric assay. The data set is classed as physicochemical. As to the method:
Solubility limits were determined by a turbidimetric assay, as described ([27]), with the solubility limit being defined as the compound concentration where light scattering began to rise. Two or more replicate assays were performed for each compound at each pH on different days.

The mark [4] stands for this setting: pH 5 (fed simulated intestinal fluid), upper limit 200 µM.
[5] abbreviates: pH 5, replicate 1, upper limit 200 µM.
[6] abbreviates: pH 5, replicate 2, upper limit 200 µM.
The mark [7] stands for this setting: pH 6.5 (fasted simulated intestinal fluid), upper limit 200 µM.
[8] abbreviates: pH 6.5, replicate 1, upper limit 200 µM.
Setting [9] is: pH 6.5, replicate 2, upper limit 200 µM.
[10] abbreviates: pH 7.4 (DMEM-F12 with 10% FBS), upper limit 200 µM.
Setting [11] is: pH 7.4, replicate 1, upper limit 200 µM.
Setting [12] is: pH 7.4, replicate 2, upper limit 200 µM.
Where [13] appears, read: pH 7.4, replicate 3, upper limit 200 µM.

Regarding `CC(=NOCc1ccccc1Br)c1c(C)cc(=O)n(O)c1O` [Compound 1718], the “HepDES19 SI (CC50/EC50)” value in data set [1] is given as 34.1. Further, the EC50 in data set [1] amounted to 2 ± 1.63 µM. Also, the results for the “Avg Papp (PAMPA)” value in data set [2] (FeSSIF pH 5) and in data set [2] (pH 7.4) were 43.6 ×10⁻⁶ cm/s and 3.22 ×10⁻⁶ cm/s, respectively. Moreover, the “Interpretation (PAMPA Papp)” value in data set [2] (FeSSIF pH 5) and in data set [2] (pH 7.4) was “H (H: Papp > 1*10-6)” throughout. Besides, the “Papp 1 (PAMPA)” value in data set [2] (FeSSIF pH 5, replicate 1) was 37.3 ×10⁻⁶ cm/s; in data set [2] (pH 7.4, replicate 1), 3.31 ×10⁻⁶ cm/s. The “Papp 2 (PAMPA)” value in data set [2] (FeSSIF pH 5, replicate 2) was 50 ×10⁻⁶ cm/s; in data set [2] (pH 7.4, replicate 2), 3.07 ×10⁻⁶ cm/s. Further, the “Papp 3 (PAMPA)” value in data set [2] worked out at 3.29 ×10⁻⁶ cm/s. Moreover, in the data set on HepDES19 cells, the CC50 worked out at 80.8 ± 27.5 µM. For the same molecule, the “Average Sol (solubility limit)” value is listed as more than 200 µM in data set [3] (setting [4]), 138 µM in data set [3] (setting [7]) and 150 µM in data set [3] (setting [10]). Besides, the “Sol 1 (solubility limit)” value in data set [3] (setting [5]) was more than 200 µM; in data set [3] (setting [8]), 50 µM; in data set [3] (setting [11]), 50 µM. Besides, the “Sol 2 (solubility limit)” value is more than 200 µM in data set [3] (setting [6]), 100 µM in data set [3] (setting [9]) and more than 200 µM in data set [3] (setting [12]). Also, the “Sol 3 (solubility limit)” value in data set [3] (pH 6.5, replicate 3, upper limit 200 µM) is listed as more than 200 µM; in data set [3] (setting [13]), more than 200 µM. Further, the “Sol 4 (solubility limit)” value in data set [3] (pH 6.5, replicate 4, upper limit 200 µM) was more than 200 µM.
On to `CC(=NOCc1ccc2ccccc2c1)c1c(C)cc(=O)n(O)c1O` [Compound 1811], for which the “HepDES19 SI (CC50/EC50)” value in data set [1] amounted to 71.3. In addition, the EC50 in data set [1] is 1.4 ± 1.19 µM. Besides, the “Avg Papp (PAMPA)” value in data set [2] (pH 7.4) stood at 3.57 ×10⁻⁶ cm/s. Besides, the “Interpretation (PAMPA Papp)” value in data set [2] (pH 7.4) was “H (H: Papp > 1*10-6)”. Also, the “Papp 1 (PAMPA)” value in data set [2] (pH 7.4, replicate 1) turned out to be 1.71 ×10⁻⁶ cm/s. Further, the “Papp 2 (PAMPA)” value in data set [2] (pH 7.4, replicate 2) is 3.97 ×10⁻⁶ cm/s. Besides, the “Papp 3 (PAMPA)” value in data set [2] amounted to 4.02 ×10⁻⁶ cm/s. Further, the “Papp 4 (PAMPA)” value in data set [2] (pH 7.4, replicate 4) stood at 4.6 ×10⁻⁶ cm/s. In addition, the cytotoxic concentration (CC50) in the data set on HepDES19 cells was 64.3 ± 25.2 µM. For the same molecule, the Solubility limit category result in data set [3] (pH 5.0 (fed simulated intestinal fluid)) is given as “partially soluble (partially soluble (100–1 µM))”. For the same molecule, the “Average Sol (solubility limit)” value in data set [3] (setting [4]) is on record as 50 µM; in data set [3] (setting [7]) it was more than 200 µM; in data set [3] (setting [10]), 167 µM. Further, the “Sol 1 (solubility limit)” value is given as 50 µM in data set [3] (setting [5]), more than 200 µM in data set [3] (setting [8]) and 100 µM in data set [3] (setting [11]). Moreover, the entries for the “Sol 2 (solubility limit)” value in data set [3] (setting [6]), in data set [3] (setting [9]) and in data set [3] (setting [12]) were 50 µM, more than 200 µM and more than 200 µM, respectively. Moreover, the “Sol 3 (solubility limit)” value in data set [3] (setting [13]) was more than 200 µM.
